Counter-ions that a name gives are not always drawn.
Experiments:
[1] = test system: mice with essential tremor; experiment: Rotating rod test in harmaline induced mouse model of essential tremor; type: in vivo, ICR male mice; conditions: for Residence Time on Rod, Time 0: 15 minutes after modeling with harmaline, immediately before administration; for Residence Time on Rod, Time 0 / Residence Time on Rod, 30 min / Residence Time on Rod, 60 min / Residence Time on Rod, 90 min / Residence Time on Rod, Pre-harmaline: mean ± SD; for Residence Time on Rod, 30 min: 30 min after time 0/administration; for Residence Time on Rod, 30 min / Residence Time on Rod, 60 min / Residence Time on Rod, 90 min: test groups 5 mg/kg·bw intraperitoneal, propranolol 2 mg/kg·bw gavage; for Residence Time on Rod, 60 min: 60 min after time 0/administration; for Residence Time on Rod, 90 min: 90 min after time 0/administration; for Ratio of area under the curve of each group to area under the curve of the model control group: area under the rod exercise ability recovery curve, model control group = 1, normal control group 6.47; for residence time on rod compared with model control group (in words): at each time point 30 min, 60 min, 90 min; for residence time on rod compared with model control group (in words) / recovery of exercise ability in the rotating rod test compared with model control (in words): p<0.05; for Residence Time on Rod, Pre-harmaline: baseline before harmaline and before administration, 10 mice per group, max 180 seconds; for recovery of exercise ability in the rotating rod test compared with model control (in words): from area under the curve, Table 2
From the text: Effect of Ginkgo biloba terpene lactone on the Mouse Model of Essential Tremor Induced by Harmaline
The following animals are used: 100 […] (ICR) male mice of SPF grade, weighted 18-22 g, purchased from Chengdu Dashuo Experimental Animal Co., Ltd., with the animal production license number of SCXK (Sichuan) 2015-030.
100 mice were randomly assigned to ear label number and randomly divided into 10 groups according to weight stratified random number method, with 10 mice in each group.
The groups are: normal control group, model control group, propranolol hydrochloride tablet control group, Ginkgo biloba leave extract injection solution control group, ginkgolide injection group, ginkgolide A group, ginkgolide B group, bilobalide group, ginkgolide B/bilobalide group (GB:BB=1:1 w/w) and ginkgolide A/B/C group (A:B:C=1:1:1 w/w/w).
The normal control group and the model control group were administrated 0.9% sodium chloride injection by intraperitoneal injection at 0.1 mL/10 g·bw.
The hydrochloride tablet control group was administrated by gavage a solution (prepared with 0.9% sodium chloride injection) at 2 mg/kg·bw.
Ginkgolide injection group, ginkgolide A group, ginkgolide B group, bilobalide group, ginkgolide B/bilobalide group, ginkgolide A/B/C group were administrated by intraperitoneal injection at 5 mg/kg·bw.
Ginkgo biloba leave extract injection solution control group was administered by intraperitoneal injection at 5 mg/kg·bw.
On the day before the rotating rod test, all mice were given rotating rod training, so that they were familiar with the relevant movements and were able to maintain balance by climbing continuously, without falling from the rotating rod at a low rotating speed (10 circles/min).
First, a rotating rod test was performed on all mice. The result was recorded as Pre-harmaline, used as the basic value of their exercise ability.
15 minutes after modeling, the time when it is observed that the mice given harmaline show obvious tremor, reduced activity and ataxia symptoms, was took as time 0. A rotating rod test was performed on all mice at time 0. Then the mice were administered immediately.
After time 0, a rotating rod test was performed on all mice at time 30 min (30 min), time 60 min (60 min), and time 90 min (90 min).
Rotary rod test method: the mice were placed on the Rota Rod Fatigue Tester, and adapted for 20 seconds. After the mice stood steady on the rod, the tester was started and the rod was accelerated at a constant rate according to the setting. Each mouse's residence time on the rod, from the beginning of the test to the time when falling off the rod, was recorded respectively. The Rota Rod Fatigue Tester supports up to 6 channels for simultaneous testing.
The rod is set to rotate at an initial speed of 5 circles/min (5 c/min) which is increased at a constant rate to a maximum speed of 30 circles/min (30c/min) during 120 seconds, and kept at the maximum speed for 60 seconds. Therefore, each test costs 180 seconds in total, and the mice that had not yet fallen off the rod at the end of 180 seconds was recorded as having a residence time of 180 seconds on the rod.
Exercise ability change curves of the mice in each group were drawn, and the area under the curve was calculated.
The experimental data were processed by using a SPSS 19.0 statistical software. The measurement data are expressed as mean±standard deviation (±SD). Data normality test was performed using the Kolmogorov-Smirnov method.

[2] = test system: Patients with Essential Tremor; experiment: Observation of dropping pills on patients with essential tremor (tremor score, adverse reactions); type: in vivo, human; conditions: Patient 2, general information before treatment
From the text: The following 6 items related to tremor are scored: 1) patient complaint; 2) upper limb tremor procedure; 3) head, jaw, tongue and lower limb tremor degree; 4) full water test; 5) dressing, eating, buttoning and chopstick using; and 6) drawing circles and straight lines. The score for each item is classified as: normal (scored 0 piont), mild (scored 1 point), moderate (scored 2 points) and severe (scored 3 points).
Ineffective: the difference in tremor score before and after the treatment is −1 to 1.
(§1) Deterioration: the difference in tremor score before and after the treatment is ≤−2.

[3] = test system: Patients with Vascular Tremor; experiment: Observation of dropping pills on patients with vascular tremor (tremor score, adverse reactions); type: in vivo, human; conditions: Patients 1, 2, 3, general information before treatment
From the text: Diagnosis criteria: A. Reduced movement, muscle rigidity, forward gait, broken steps and reciprocating; B. Positive signs of the nervous system; C. A history of hypertension and cerebral arteriosclerosis.
Exclusion criteria: Tremor paralysis caused by drugs and other diseases are excluded.
The following 6 items related to tremor are scored: 1) patient complaint; 2) upper limbs tremor procedure; 3) head, jaw, tongue and lower limbs tremor degree; 4) full water test; 5) dressing, eating, buttoning and chopsticks using; 6) drawing circles and straight lines. The score for each item is classified as: normal (scored 0 piont), mild (scored 1 point), moderate (scored 2 points) and severe (scored 3 points).
Ineffective: the difference in tremor score before and after the treatment is −1 to 1
as §1

| SMILES | Residence Time on Rod, Time 0 [1] [s] | Residence Time on Rod, 30 min [1] [s] | Residence Time on Rod, 60 min [1] [s] | Residence Time on Rod, 90 min [1] [s] | Ratio of area under the curve of each group to area under the curve of the model control group [1] | residence time on rod compared with model control group (in words) [1] | Residence Time on Rod, Pre-harmaline [1] [s] | recovery of exercise ability in the rotating rod test compared with model control (in words) [1] | effect in this patient (patient history) [2] | effect in this patient (patient history) [3] |
| --- | --- | --- | --- | --- | --- | --- | --- | --- | --- | --- |
| CC(C)(C)[C@]1(O)CC2OC(=O)CC23C(=O)OC2OC(=O)[C@H](O)C231 (stereo partly shown) [Bilobalide, bilobalide] | 40.0 ± 15.6 | 48.2 ± 12.8 | 61.2 ± 15.2 | 90.6 ± 13.9 | 2.20 | significantly higher than that of the model control group | 171.6 ± 17.9 | significantly better than that of model control mice | – | – |
| C[C@@H]1C(=O)O[C@H]2C[C@@]34[C@H]5C[C@@H](C(C)(C)C)[C@]36[C@@H](OC(=O)[C@@H]6O)O[C@@]4(C(=O)O5)[C@]21O [Ginkgolide A, ginkgolide A] | 42.6 ± 10.8 | 50.8 ± 10.9 | 60.3 ± 13.1 | 91.4 ± 11.5 | 2.24 | significantly higher than that of the model control group | 170.6 ± 21.2 | significantly better than that of model control mice | – | – |
| CC1C(=O)OC2C(O)C34C5CC(C(C)(C)C)C36C(OC(=O)C6O)OC4(C(=O)O5)C12O (stereo not shown) [Ginkgolide B, ginkgolide B] | 43.9 ± 12.3 | 52.6 ± 9.8 | 65.8 ± 12.8 | 100.2 ± 14.2 | 2.39 | significantly higher than that of the model control group | 175.7 ± 18.3 | significantly better than that of model control mice | – | – |
| N[C@@H](Cc1ccc(O)c(O)c1)C(=O)O [Levodopa] | – | – | – | – | – | – | – | – | no effect | no effect |
| CC(C)NCC(O)COc1cccc2ccccc12 (stereo not shown) [Propranolol hydrochloride tablet, Propranolol hydrochloride, reference compound] | 41.6 ± 12.8 | 60.1 ± 12.8 | 77.6 ± 10.3 | 119.3 ± 13.0 | 2.74 | significantly higher than that of the model control group | 176.6 ± 12.9 | significantly better than that of model control mice | – | – |
